SMILES strings stand for the structures.

The source of these data is patent US20240342111A1, “ISOMER-SPECIFIC NEUROPROTECTIVE EFFECT OF NATURAL RESERVATROL” (priority 2021, published 2024).

A short description of series [1]: Spectral analysis (absorption spectrum) of cis- and trans-RSV conformation in solution. The series is classed as physicochemical. The conditions noted are these: for peak absorption: lower concentrations (≤10 μM), range 250-400 nm. Here is the method: Nature 519, 370-373, doi:10.1038/nature14028 (2015). […] Mol Nutr Food Res 63, e1800715, doi:10.1002/mnfr.201800715 (2019). […] Commercially available cis- and trans-RSV were dissolved in ethanol to generate the stock solutions. […] The dilutions were done in the dark and samples were protected from light. […] Low dose trans-RSV evokes a paradoxical shift in equilibrium towards the cis conformation in solution.
Each stock was diluted 1000× in DMSO to prepare different stocks to obtain the final working solutions and micromolar concentrations to obtain the absorption spectrum. The control solution was prepared using ethanol and DMSO (0.1% ethanol). Absorption was measured using Spectramax 300R at room temperature. Stock solutions were stored at −20° C., and the working solutions were prepared fresh and protected from light during the preparation.

Series [2] concerns Cortical neurons. The series can be described thus: Aβ-induced neurite degeneration (MAP2 immunostaining). The conditions noted are these: for Aβ-induced neurotoxicity (neurite degeneration): pre-treated 50 μM 16 hours, then Aβ 50 nM 24 hours. The series is classed as cell-based, rat. Here is the method: Cells were then exposed to excitotoxic NMDA (500 μM for 5 minutes) and viability was assessed using MTT assay after 24 hours. […] Rat cortical neurons (DIV 9) were treated with NMDA (50 μM for 5 minutes) and then with cis-RSV for 24 hours. Cells were then exposed to excitotoxic NMDA (500 μM for 5 minutes) and viability was assessed using MTT assay after 24 hours. […] Cell viability was assessed after 48 hours. […] Representative images (scale bar, 20 μm) for cortical neurons following neurite degeneration (MAP2—neurite marker, magenta and DAPI—nuclear marker, blue). […] Neurons were immunoassayed with anti-MAP2 antibody and quantified for neurite degeneration. The data represents mean±SEM for n=3 experiments with significance measured using Student's paired t-test.
Amyloid Beta oligomers were prepared as described previously, see Ahmed, M. et al. Structural conversion of neurotoxic amyloid-beta (1-42) oligomers to fibrils. Nat Struct Mol Biol 17, 561-567, doi:10.1038/nsmb.1799 (2010) and Wang, X. et al. Elevated Neuronal Excitability Due to Modulation of the Voltage-Gated Sodium Channel Nav1.6 by A beta (1-42). Front Neurosci-Switz 10, doi:ARTN 94 10.3389/fnins.2016.00094 (2016). […]
Neurite degeneration index was calculated as described previously, see Jin, M. et al. Soluble amyloid beta-protein dimers isolated from Alzheimer cortex directly induce Tau hyperphosphorylation and neuritic degeneration. […] The samples to be analyzed for neurite degeneration were stained using the standard immunofluorescence procedure with MAP2 (Alexa fluor 647) for neurites and DAPI staining for the nucleus. Neurite degeneration quantification was done using 5-6 regions of interest of equal sizes from each treatment condition. […] To detect degenerated neurites, we used the particle analyzer module of ImageJ and calculated the percentage of the area of the small fragments or particles (size=3-10 μm^2) to the intact neurites (size>25 μm2) with information derived from the binary images. A degeneration index (DI) was calculated as the fragmented neurite area ratio over intact neurite area. […]

Series [3] deals with T1, TyrRS (Rattus norvegicus, UniProt Q4KM49).
T1 construct: Primary cortical neuron cultures were obtained from E18 Sprague Dawley rats' cortices; endogenous in cells; host or cells: rat primary cortical neurons (E18 Sprague Dawley)
T1 sequence (Q4KM49 1-528): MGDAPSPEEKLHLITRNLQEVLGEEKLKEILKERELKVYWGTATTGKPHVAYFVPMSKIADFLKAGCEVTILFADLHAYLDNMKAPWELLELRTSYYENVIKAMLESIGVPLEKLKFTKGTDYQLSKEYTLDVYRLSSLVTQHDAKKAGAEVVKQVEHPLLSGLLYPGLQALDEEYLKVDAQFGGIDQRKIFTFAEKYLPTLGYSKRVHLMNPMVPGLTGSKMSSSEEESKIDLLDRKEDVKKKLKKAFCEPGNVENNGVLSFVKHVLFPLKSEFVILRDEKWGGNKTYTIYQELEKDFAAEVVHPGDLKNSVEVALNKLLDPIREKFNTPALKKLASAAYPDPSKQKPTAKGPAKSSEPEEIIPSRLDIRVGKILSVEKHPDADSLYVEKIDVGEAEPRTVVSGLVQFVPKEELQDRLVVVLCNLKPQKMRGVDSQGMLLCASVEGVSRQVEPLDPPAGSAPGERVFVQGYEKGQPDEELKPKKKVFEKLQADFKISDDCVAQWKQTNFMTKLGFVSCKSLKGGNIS
The series can be described thus: Immunostaining of neuronal TyrRS, RSV alone or in combination with Aβ. The series is classed as cell-based. The conditions noted are these: 16 hours; for TyrRS protein levels: alone, 50μ; for Aβ-mediated downregulation of TyrRS: co-treatment 50μ with Aβ 50 nM.

In series [1], `Oc1ccc(/C=C\c2cc(O)cc(O)c2)cc1` [cis-RSV, cis-resveratrol] displayed a specific absorption peak of 295 nm and a peak absorption of 295 nm. Besides, the conformation in solution result in series [1] (cis-RSV, 5-50 μM) is on record as “retains its conformation across the different doses”. The “Aβ-induced neurotoxicity (neurite degeneration)” value in series [2] is reported as “protected against Aβtoxicity”. In series [3], the TyrRS protein levels result is reported as “upregulation of the TyrRS protein levels” and the “Aβ-mediated downregulation of TyrRS” value is reported as “protected against Aβ-mediated downregulation of TyrRS”.

Regarding `Oc1ccc(/C=C/c2cc(O)cc(O)c2)cc1` [trans-RSV, trans-resveratrol], in series [1], the specific absorption peak is 330 nm and the peak absorption came out at 295 nm. Also, the conformation in solution entry in series [1] (concentrations ≤10 μM, in DMSO, protected from light) was “exists majorly in cis-RSV conformation”. In series [1] (high dose (≥25 μM)), the conformation in solution entry was “retains its trans conformation”. In addition, in series [2] (50 μM, without Aβ), the “neurotoxicity (neurite degeneration) by itself” value is given as “itself induced neurotoxicity”. In addition, the “Aβ-induced neurotoxicity (neurite degeneration)” value in series [2] is recorded as “exacerbating Aβtoxicity”. Besides, in series [3], the TyrRS protein levels entry is “downregulation” and the “Aβ-mediated downregulation of TyrRS” value is given as “exacerbated the downregulation of TyrRS”.
